In PubChem BioAssay (NCI):
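The compound was tested at five concentrations on cells cultured in 96-well plates, with a 48-hour exposure period. TGI is the concentration that stops growth completely.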

How the values were obtained:
Assay in all cases: NCI tumour cell line growth inhibition, 48 h
786-0 renal = tested on: 786-0 renal
A498 renal = tested on: A498 renal
ACHN renal = tested on: ACHN renal
BT-549 breast = tested on: BT-549 breast
CAKI-1 renal = tested on: CAKI-1 renal
CCRF-CEM leukemia = tested on: CCRF-CEM leukemia
COLO 205 colon = tested on: COLO 205 colon
DU-145 prostate = tested on: DU-145 prostate
EKVX NSCLC = tested on: EKVX NSCLC
HCT-116 colon = tested on: HCT-116 colon
HCT-15 colon = tested on: HCT-15 colon
HL-60(TB) leukemia = tested on: HL-60(TB) leukemia
HOP-62 NSCLC = tested on: HOP-62 NSCLC
HS 578T breast = tested on: HS 578T breast
HT29 colon = tested on: HT29 colon
IGROV1 ovarian = tested on: IGROV1 ovarian
K-562 leukemia = tested on: K-562 leukemia
KM12 colon = tested on: KM12 colon
LOX IMVI melanoma = tested on: LOX IMVI melanoma
M14 melanoma = tested on: M14 melanoma
MALME-3M melanoma = tested on: MALME-3M melanoma
MCF7 breast = tested on: MCF7 breast
MDA-MB-231 breast = tested on: MDA-MB-231 breast
MDA-N = tested on: MDA-N
MOLT-4 leukemia = tested on: MOLT-4 leukemia
NCI-H226 lung = tested on: NCI-H226 lung
NCI-H23 lung = tested on: NCI-H23 lung
NCI-H460 lung = tested on: NCI-H460 lung
NCI/ADR-RES ovarian = tested on: NCI/ADR-RES ovarian
OVCAR-3 ovarian = tested on: OVCAR-3 ovarian
OVCAR-5 ovarian = tested on: OVCAR-5 ovarian
OVCAR-8 ovarian = tested on: OVCAR-8 ovarian
PC-3 prostate = tested on: PC-3 prostate
RPMI-8226 leukemia = tested on: RPMI-8226 leukemia
RXF 393 renal = tested on: RXF 393 renal
SF-268 CNS = tested on: SF-268 CNS
SF-295 CNS = tested on: SF-295 CNS
SF-539 CNS = tested on: SF-539 CNS
SK-MEL-2 melanoma = tested on: SK-MEL-2 melanoma
SK-MEL-5 melanoma = tested on: SK-MEL-5 melanoma
SK-OV-3 ovarian = tested on: SK-OV-3 ovarian
SN12C renal = tested on: SN12C renal
SNB-19 CNS = tested on: SNB-19 CNS
SNB-75 CNS = tested on: SNB-75 CNS
SR leukemia = tested on: SR leukemia
SW-620 colon = tested on: SW-620 colon
T-47D breast = tested on: T-47D breast
TK-10 renal = tested on: TK-10 renal
U251 CNS = tested on: U251 CNS
UACC-257 melanoma = tested on: UACC-257 melanoma
UACC-62 melanoma = tested on: UACC-62 melanoma
UO-31 renal = tested on: UO-31 renal
A549 NSCLC = tested on: A549 NSCLC
HCC-2998 colon = tested on: HCC-2998 colon
HOP-92 NSCLC = tested on: HOP-92 NSCLC
MDA-MB-435 = tested on: MDA-MB-435
NCI-H522 lung = tested on: NCI-H522 lung
OVCAR-4 ovarian = tested on: OVCAR-4 ovarian
SK-MEL-28 melanoma = tested on: SK-MEL-28 melanoma

Structure (SMILES): CN(Cc1cnc2nc(N)nc(N)c2n1)c1ccc(C(=O)NC2CCCCC2)cc1
- TGI (786-0 renal): > 100 µM
- TGI (A498 renal): 77.3 µM
- TGI (ACHN renal): 47.8 µM
- TGI (BT-549 breast): > 100 µM
- TGI (CAKI-1 renal): > 100 µM
- TGI (CCRF-CEM leukemia): > 100 µM
- TGI (COLO 205 colon): > 100 µM
- TGI (DU-145 prostate): > 100 µM
- TGI (EKVX NSCLC): > 100 µM
- TGI (HCT-116 colon): > 100 µM
- TGI (HCT-15 colon): > 100 µM
- TGI (HL-60(TB) leukemia): > 100 µM
- TGI (HOP-62 NSCLC): > 100 µM
- TGI (HS 578T breast): 63.4 µM
- TGI (HT29 colon): 31 µM
- TGI (IGROV1 ovarian): 45.6 µM
- TGI (K-562 leukemia): > 100 µM
- TGI (KM12 colon): 83.2 µM
- TGI (LOX IMVI melanoma): > 100 µM
- TGI (M14 melanoma): 29 µM
- TGI (MALME-3M melanoma): > 100 µM
- TGI (MCF7 breast): > 100 µM
- TGI (MDA-MB-231 breast): > 100 µM
- TGI (MDA-N): > 100 µM
- TGI (MOLT-4 leukemia): > 100 µM
- TGI (NCI-H226 lung): 80.4 µM
- TGI (NCI-H23 lung): > 100 µM
- TGI (NCI-H460 lung): 63.5 µM
- TGI (NCI/ADR-RES ovarian): > 100 µM
- TGI (OVCAR-3 ovarian): > 100 µM
- TGI (OVCAR-5 ovarian): > 100 µM
- TGI (OVCAR-8 ovarian): > 100 µM
- TGI (PC-3 prostate): 46 µM
- TGI (RPMI-8226 leukemia): > 100 µM
- TGI (RXF 393 renal): > 100 µM
- TGI (SF-268 CNS): > 100 µM
- TGI (SF-295 CNS): > 100 µM
- TGI (SF-539 CNS): 29.7 µM
- TGI (SK-MEL-2 melanoma): > 100 µM
- TGI (SK-MEL-5 melanoma): 38.1 µM
- TGI (SK-OV-3 ovarian): > 100 µM
- TGI (SN12C renal): > 100 µM
- TGI (SNB-19 CNS): 38.7 µM
- TGI (SNB-75 CNS): 65.4 µM
- TGI (SR leukemia): > 100 µM
- TGI (SW-620 colon): > 100 µM
- TGI (T-47D breast): > 100 µM
- TGI (TK-10 renal): > 100 µM
- TGI (U251 CNS): 32.5 µM
- TGI (UACC-257 melanoma): > 100 µM
- TGI (UACC-62 melanoma): 32 µM
- TGI (UO-31 renal): > 100 µM

Structure (SMILES): CCC/C(Cl)=N/OC(=O)Nc1cccc(F)c1
- TGI (786-0 renal): 3.2 µM
- TGI (A549 NSCLC): 41.6 µM
- TGI (ACHN renal): 2.88 µM
- TGI (BT-549 breast): 10.4 µM
- TGI (CAKI-1 renal): 7.77 µM
- TGI (COLO 205 colon): 3.98 µM
- TGI (DU-145 prostate): 31.6 µM
- TGI (EKVX NSCLC): 12.2 µM
- TGI (HCC-2998 colon): 30.4 µM
- TGI (HCT-116 colon): 18.6 µM
- TGI (HCT-15 colon): 4.1 µM
- TGI (HOP-62 NSCLC): 29.9 µM
- TGI (HOP-92 NSCLC): 3.18 µM
- TGI (HS 578T breast): > 63.1 µM
- TGI (HT29 colon): 9.35 µM
- TGI (IGROV1 ovarian): 27.5 µM
- TGI (K-562 leukemia): 8.87 µM
- TGI (KM12 colon): 31.2 µM
- TGI (LOX IMVI melanoma): 5.42 µM
- TGI (M14 melanoma): 14.7 µM
- TGI (MALME-3M melanoma): 3.11 µM
- TGI (MCF7 breast): 8.85 µM
- TGI (MDA-MB-231 breast): 27.7 µM
- TGI (MDA-MB-435): 24.8 µM
- TGI (MDA-N): 23.1 µM
- TGI (MOLT-4 leukemia): 5.55 µM
- TGI (NCI-H226 lung): 27.9 µM
- TGI (NCI-H23 lung): 38.2 µM
- TGI (NCI-H460 lung): 39 µM
- TGI (NCI-H522 lung): 1.05 µM
- TGI (NCI/ADR-RES ovarian): > 21.1 µM
- TGI (OVCAR-3 ovarian): 6.6 µM
- TGI (OVCAR-4 ovarian): 25.4 µM
- TGI (OVCAR-5 ovarian): 36.3 µM
- TGI (OVCAR-8 ovarian): 37.4 µM
- TGI (PC-3 prostate): 30.7 µM
- TGI (RPMI-8226 leukemia): 8.08 µM
- TGI (RXF 393 renal): 20.5 µM
- TGI (SF-268 CNS): > 54.4 µM
- TGI (SF-295 CNS): 32.5 µM
- TGI (SK-MEL-2 melanoma): 33.4 µM
- TGI (SK-MEL-28 melanoma): 9.82 µM
- TGI (SK-MEL-5 melanoma): 20.4 µM
- TGI (SK-OV-3 ovarian): 31 µM
- TGI (SN12C renal): 15.2 µM
- TGI (SNB-19 CNS): 32.3 µM
- TGI (SNB-75 CNS): 28.3 µM
- TGI (SW-620 colon): 2.98 µM
- TGI (T-47D breast): 6.34 µM
- TGI (TK-10 renal): > 19.7 µM
- TGI (U251 CNS): 32.6 µM
- TGI (UACC-257 melanoma): 28 µM
- TGI (UACC-62 melanoma): 32.6 µM
- TGI (UO-31 renal): 23.3 µM

Structure (SMILES): Cc1c(O)c(OC2OC(CO)C(O)C(O)C2O)cc2c1CC[C@@H]1C2(C)C(=O)C[C@]2(C)[C@@H]([C@@](C)(O)C(O)CCC(C)(C)O)[C@H](O)C[C@@]12C (stereo partly drawn)
- TGI (786-0 renal): > 100 µM
- TGI (A498 renal): > 100 µM
- TGI (A549 NSCLC): > 100 µM
- TGI (ACHN renal): > 100 µM
- TGI (BT-549 breast): > 100 µM
- TGI (CAKI-1 renal): > 100 µM
- TGI (CCRF-CEM leukemia): > 100 µM
- TGI (COLO 205 colon): > 100 µM
- TGI (DU-145 prostate): > 100 µM
- TGI (EKVX NSCLC): > 100 µM
- TGI (HCC-2998 colon): > 100 µM
- TGI (HCT-116 colon): > 100 µM
- TGI (HCT-15 colon): > 100 µM
- TGI (HL-60(TB) leukemia): > 100 µM
- TGI (HOP-62 NSCLC): > 100 µM
- TGI (HOP-92 NSCLC): > 100 µM
- TGI (HT29 colon): > 100 µM
- TGI (IGROV1 ovarian): > 100 µM
- TGI (K-562 leukemia): > 100 µM
- TGI (KM12 colon): > 100 µM
- TGI (LOX IMVI melanoma): > 100 µM
- TGI (M14 melanoma): > 100 µM
- TGI (MALME-3M melanoma): > 100 µM
- TGI (MCF7 breast): > 100 µM
- TGI (MDA-MB-231 breast): > 100 µM
- TGI (MDA-MB-435): > 100 µM
- TGI (MDA-N): > 100 µM
- TGI (MOLT-4 leukemia): > 100 µM
- TGI (NCI-H226 lung): > 100 µM
- TGI (NCI-H23 lung): > 100 µM
- TGI (NCI-H460 lung): > 100 µM
- TGI (NCI-H522 lung): > 100 µM
- TGI (NCI/ADR-RES ovarian): > 100 µM
- TGI (OVCAR-3 ovarian): > 100 µM
- TGI (OVCAR-4 ovarian): > 100 µM
- TGI (OVCAR-5 ovarian): > 100 µM
- TGI (OVCAR-8 ovarian): > 100 µM
- TGI (PC-3 prostate): > 100 µM
- TGI (RXF 393 renal): > 100 µM
- TGI (SF-268 CNS): > 100 µM
- TGI (SF-295 CNS): > 100 µM
- TGI (SF-539 CNS): > 100 µM
- TGI (SK-MEL-2 melanoma): > 100 µM
- TGI (SK-MEL-28 melanoma): > 100 µM
- TGI (SK-MEL-5 melanoma): > 100 µM
- TGI (SK-OV-3 ovarian): > 100 µM
- TGI (SN12C renal): > 100 µM
- TGI (SNB-19 CNS): > 100 µM
- TGI (SNB-75 CNS): > 100 µM
- TGI (SR leukemia): > 100 µM
- TGI (SW-620 colon): > 100 µM
- TGI (T-47D breast): > 100 µM
- TGI (TK-10 renal): > 100 µM
- TGI (U251 CNS): > 100 µM
- TGI (UACC-257 melanoma): > 100 µM
- TGI (UACC-62 melanoma): > 100 µM
- TGI (UO-31 renal): > 100 µM
